US20250388602A1 (Genase Therapeutics B.V., priority 2022, published 2025)
Read-outs that look alike come from different tables or passages of the source. Blank lines part the entries; values can stand above or below the molecule they belong to.

Assays:
in vitro [1] = settings: for HLM % remaining: % remaining at 60 min, 1 μM; for half-life at 1 μM: both, human
Experimental: Human Liver Microsomal metabolic stability: The microsomal metabolic stability assay utilized pooled human liver microsomes (mixed gender, BD Gentest), with supplemented cofactors NADPH and UDPGA (Solarbio S&T Co., LTD). Two separate experiments were performed as follows: • a) With cofactors (NADPH & UDPGA): 25 μL of 10 mM NADPH and 25 μL of 20 mM UDPGA were added to 197.5 μL of reaction solution (phosphate buffer (final concentration in assay 100 mM), MgCl2 (final concentration in assay (5 mM)), alamethacin (final concentration in assay 0.025 mg/mL) and microsomes (final concentration in assay 0.5 mg/mL). • b) Without cofactors (NADPH & UDPGA): 50 μL of H2O was added to 197.5 μL of reaction solution.
The mixture was pre-warmed at 37° C. for 10 minutes. The reaction was started with the addition of 2.5 μL of 100 μM control compound or test compound solutions. Diclofenac was used as positive control in this study. The final concentration of control compound and test compounds was 1 μM. Aliquots of 25 μL were taken from the reaction solution at 0.5, 5, 15, 30 and 60 minutes. The reaction was stopped by the addition of 5 volumes of cold acetonitrile containing internal standards. Samples were centrifuged at 3,220 g for 40 minutes. An aliquot of 100 μL of the supernatant was mixed with 100 μL of ultra-pure H2O and then used for LC-MS/MS analysis. Peak areas were determined from extracted ion chromatograms. Percent parent remaining was calculated from the area ratio of test compound. The slope value was determined by linear regression of the natural logarithm of percent parent remaining versus incubation time curve.
(§1) Peak areas were determined from extracted ion chromatograms to determine the in vitro half-life (t½) of parent compound by regression analysis of the percent parent disappearance vs. time curve. The in vitro half-life (in vitro t½) was determined from the slope value (in vitro t½=−0.693/k). All calculations were carried out using Microsoft Excel.

in vitro [2] = settings: for hHEPs % remaining: % remaining at 120 min, 1 μM; for half-life at 1 μM: human, hepatocytes
Experimental: Human Hepatocyte metabolic stability: Human hepatocytes (X008000, BioIVT) were freshly thawed prior to the incubations with test compound. Hepatocytes were transferred to 50 mL conical tubes and centrifuged 10 min at 100 g. Thawing medium was removed and replaced by preheated (37° C.) incubation medium (William's E Medium supplemented with GlutaMAX), to yield a hepatocyte density ˜1.5×10^6 cells/mL. Cell viability was determined using AO/PI staining and hepatocytes were diluted using incubation medium to a working density of 0.5×10^6 viable cells/mL. 198 μL of hepatocytes were added into each well of a 96-well plate and placed in the incubator to allow the hepatocytes to warm for 10 minutes. 2 μL test compound or positive control was placed into respective wells of the 96-well plate (final concentration test compound 1 μM) to start the reaction. The plate was returned to the incubator and 25 μL aliquots of the well contents were removed at time points of 0, 15, 30, 60, 90 and 120 minutes. The aliquots were mixed with 6 volumes (150 μL) of acetonitrile containing internal standards (100 nM alprazolam, 200 nM caffeine, and 100 nM tolbutamide) to terminate the reaction. The plate was centrifuged for 20 minutes at 3,200 g. Aliquots of 150 μL of the supernatants were used for LC/MS/MS analysis. All incubations were performed in duplicate.
as §1

recombinant human DHODH = recombinant human DHODH (Homo sapiens (Human), UniProt Q02127); assay: DHODH enzyme assay (Assay A), DCIP absorbance; assay type: biochemical
Experimental: Inhibition of human dihydroorotate dehydrogenase (DHODH) by example compounds as described herein was determined using one of two assays as described below.
DHODH enzyme assays were performed with 6 nM recombinant human DHODH (purified essentially as described by Walse et al., Biochemistry, 47, 8929-8936 (2008)). The reaction mixture consisted of 1 mM DL-dihydroorotic acid (#D7003, Sigma-Aldrich), 100 μM 3,4-dimethoxy-5-methyl-p-benzoquinone (#D9150, Sigma-Aldrich), and 100 μM 2,6-dichlorophenolindophenol sodium salt (DCIP) (#D1878, Sigma-Aldrich) in enzyme buffer (50 mM Tris-HCl pH 8.0, 0.1% Triton X-100, 150 mM KCl). A stock solution of 20 mM DCIP was prepared in enzyme buffer and filtered through Whatman paper just before use. Reactions were performed in a total volume of 100 μL, consisting of 1 μL of compound, 49 μL of enzyme and 50 μL of reaction mixture. Loss in absorbance by chromogen DCIP was measured at 595 nm following a 70 minute incubation at 32° C.

MOLM-13 cells = assay: MOLM-13 cell viability (Assay B), Cell Titer-Glo; assay type: cell-based; settings: Homo sapiens, read-out: IC50 MOLM13 inhibition activity
Experimental: MOLM-13 cells (an acute myeloid leukemia cell line) were plated in RPMI supplied with 10% FBS and 1% Pen/Strep in 384-well plates at 1,000 cells per well on day 0. On day 1, treatment of the cells with compound (concentration range 10E-5 and 6E-12 M) was initiated in the presence or absence of 100 μM uridine. After 72 hours incubation of the cells with or without test compound, the number of viable cells per well was assessed by Cell Titer-Glo Luminescent Cell Viability Assay (Promega, Madison, WI, USA). […] Each condition was tested in duplicate and the potency of test compounds was determined from two independent experiments.

[3] = bins ≥10 nM-<100 nM and <10 nM, read-out: IC50 DHODH inhibition activity
[4] = MOLM-13, 72 hours, bins ≥10 nM-<100 nM and <10 nM

recombinant human DHODH, sequence (Q02127 whole entry): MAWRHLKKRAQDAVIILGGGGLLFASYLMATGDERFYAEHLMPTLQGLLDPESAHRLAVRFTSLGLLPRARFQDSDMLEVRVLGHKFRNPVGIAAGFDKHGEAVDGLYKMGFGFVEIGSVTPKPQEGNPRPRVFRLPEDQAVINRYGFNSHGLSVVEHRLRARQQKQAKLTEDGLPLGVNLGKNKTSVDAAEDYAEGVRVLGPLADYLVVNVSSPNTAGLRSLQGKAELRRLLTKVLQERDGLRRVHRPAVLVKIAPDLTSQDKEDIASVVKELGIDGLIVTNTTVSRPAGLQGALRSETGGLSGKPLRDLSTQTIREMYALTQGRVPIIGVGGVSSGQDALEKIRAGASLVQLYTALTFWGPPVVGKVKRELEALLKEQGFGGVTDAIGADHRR

HLM % remaining (in vitro [1]): 88% | half-life at 1 μM (in vitro [1]; pooled liver microsomes): 274 min | hHEPs % remaining (in vitro [2]): 72% | half-life at 1 μM (in vitro [2]): 286 min
SMILES: Cc1cnc(C(=O)N[C@@H]2COCc3c2cnn3-c2ccccc2F)cc1C [Ex-45, (S)—N-(1-(2-fluorophenyl)-1,4,5,7-tetrahydropyrano[3,4-c]pyrazol-4-yl)-4,5-dimethylpicolinamide]

HLM % remaining (in vitro [1]): 92% | half-life at 1 μM (in vitro [1]; pooled human liver microsomes): > 365 min | half-life at 1 μM (in vitro [2]): 561 min
SMILES: CCc1c(C(=O)N[C@@H]2COCc3c2cnn3-c2ccccc2F)n[nH]c1C [Ex-44, (S)-4-ethyl-N-(1-(2-fluorophenyl)-1,4,5,7-tetrahydropyrano[3,4-c]pyrazol-4-yl)-5-methyl-1H-pyrazole-3-carboxamide]

HLM % remaining (in vitro [1]): 100% | half-life at 1 μM (in vitro [1]; pooled liver microsomes): > 365 min | hHEPs % remaining (in vitro [2]): 100% | half-life at 1 μM (in vitro [2]): > 600 min
SMILES: O=C(N[C@H]1COCc2c1cnn2-c1c(F)cccc1Cl)c1ncn2c1CCCC2 (single isomer, unassigned) [Ex-10]

SMILES: COc1ccc(F)c(-n2ncc3c2COC[C@H]3NC(=O)c2ncc3n2CCCC3)c1Cl [Ex-29, (S)—N-(1-(2-chloro-6-fluoro-3-methoxyphenyl)-1,4,5,7-tetrahydropyrano[3,4-c]pyrazol-4-yl)-5,6,7,8-tetrahydroimidazo[1,5-a]pyridine-3-carboxamide]
IC50 (recombinant human DHODH; [3]): < 10 nM | IC50 (MOLM-13 cells; [4]): < 10 nM

HLM % remaining (in vitro [1]): 85% | half-life at 1 μM (in vitro [1]; pooled liver microsomes): 236 min | hHEPs % remaining (in vitro [2]): 76% | half-life at 1 μM (in vitro [2]): 326 min
SMILES: O=C(N[C@@H]1COCc2c1cnn2-c1ccccc1F)c1n[nH]c2c1CCCC2 [Ex-42, (S)—N-(1-(2-fluorophenyl)-1,4,5,7-tetrahydropyrano[3,4-c]pyrazol-4-yl)-4,5,6,7-tetrahydro-1H-indazole-3-carboxamide]

SMILES: Cc1cccc(-n2ncc3c2COC[C@H]3NC(=O)c2ncn3c2CCCC3)c1Cl [Ex-14, (S)—N-(1-(2-chloro-3-methylphenyl)-1,4,5,7-tetrahydropyrano[3,4-c]pyrazol-4-yl)-5,6,7,8-tetrahydroimidazo[1,5-a]pyridine-1-carboxamide]
IC50 (recombinant human DHODH; [3]): < 10 nM | IC50 (MOLM-13 cells; MOLM-13, 72 h): < 10 nM

SMILES: O=C(N[C@@H]1COCc2c1cnn2-c1cccc(OCCO)c1Cl)c1ncn2c1CCCC2 [Ex-68, (S)—N-(1-(2-chloro-3-(2-hydroxyethoxy)phenyl)-1,4,5,7-tetrahydropyrano[3,4-c]pyrazol-4-yl)-5,6,7,8-tetrahydroimidazo[1,5-a]pyridine-1-carboxamide]
IC50 (recombinant human DHODH): 10 to 100 nM | IC50 (MOLM-13 cells; MOLM-13, 72 h): 10 to 100 nM

SMILES: COc1ccc(F)c(-n2ncc3c2COC[C@H]3NC(=O)c2noc3c2CCCC3)c1Cl [Ex-31, (S)—N-(1-(2-chloro-6-fluoro-3-methoxyphenyl)-1,4,5,7-tetrahydropyrano[3,4-c]pyrazol-4-yl)-4,5,6,7-tetrahydrobenzo[d]isoxazole-3-carboxamide]
IC50 (recombinant human DHODH; read-out: IC50 DHODH inhibition activity): < 10 nM | IC50 (MOLM-13 cells; MOLM-13, 72 h): < 10 nM

SMILES: CCc1c(C(=O)N[C@@H]2COCc3c2cnn3-c2c(F)ccc(OC)c2Cl)ncn1C [Ex-28, (S)—N-(1-(2-chloro-6-fluoro-3-methoxyphenyl)-1,4,5,7-tetrahydropyrano[3,4-c]pyrazol-4-yl)-5-ethyl-1-methyl-1H-imidazole-4-carboxamide]
IC50 (recombinant human DHODH; [3]): < 10 nM | IC50 (MOLM-13 cells; [4]): < 10 nM

SMILES: O=C(N[C@@H]1COCc2c1cnn2-c1cccc(C(=O)N2CCCCC2)c1Cl)c1ncn2c1CCCC2 [Ex-72, (S)—N-(1-(2-chloro-3-(piperidine-1-carbonyl)phenyl)-1,4,5,7-tetrahydropyrano[3,4-c]pyrazol-4-yl)-5,6,7,8-tetrahydroimidazo[1,5-a]pyridine-1-carboxamide]
IC50 (recombinant human DHODH; [3]): < 10 nM | IC50 (MOLM-13 cells; [4]): < 10 nM

SMILES: CCc1c(C(=O)N[C@@H]2COCc3c2cnn3-c2c(F)ccc(OC)c2Cl)n[nH]c1C [Ex-32, (S)—N-(1-(2-chloro-6-fluoro-3-methoxyphenyl)-1,4,5,7-tetrahydropyrano[3,4-c]pyrazol-4-yl)-4-ethyl-5-methyl-1H-pyrazole-3-carboxamide]
IC50 (recombinant human DHODH; [3]): 10 to 100 nM | IC50 (MOLM-13 cells; MOLM-13, 72 h): < 10 nM

SMILES: Cc1cccc(Cl)c1-n1ncc2c1COC[C@H]2NC(=O)c1n[nH]c2c1CCCC2 [Ex-37, (S)—N-(1-(2-chloro-6-methylphenyl)-1,4,5,7-tetrahydropyrano[3,4-c]pyrazol-4-yl)-4,5,6,7-tetrahydro-1H-indazole-3-carboxamide]
IC50 (recombinant human DHODH; [3]): 10 to 100 nM | IC50 (MOLM-13 cells; [4]): 10 to 100 nM

SMILES: O=C(N[C@@H]1COCc2c1cnn2-c1cccc(C(=O)N2CCOCC2)c1Cl)c1ncn2c1CCCC2 [Ex-73, (S)—N-(1-(2-chloro-3-(morpholine-4-carbonyl)phenyl)-1,4,5,7-tetrahydropyrano[3,4-c]pyrazol-4-yl)-5,6,7,8-tetrahydroimidazo[1,5-a]pyridine-1-carboxamide]
IC50 (recombinant human DHODH): 10 to 100 nM | IC50 (MOLM-13 cells; [4]): 10 to 100 nM

SMILES: CCN(CC)C(=O)c1cccc(-n2ncc3c2COC[C@H]3NC(=O)c2ncn3c2CCCC3)c1Cl [Ex-74, (S)—N-(1-(2-chloro-3-(diethylcarbamoyl)phenyl)-1,4,5,7-tetrahydropyrano[3,4-c]pyrazol-4-yl)-5,6,7,8-tetrahydroimidazo[1,5-a]pyridine-1-carboxamide]
IC50 (recombinant human DHODH; [3]): 10 to 100 nM | IC50 (MOLM-13 cells; [4]): 10 to 100 nM

SMILES: Cc1cccc(-n2ncc3c2COC[C@H]3NC(=O)c2noc3c2CCCC3)c1Cl [Ex-18, (S)—N-(1-(2-chloro-3-methylphenyl)-1,4,5,7-tetrahydropyrano[3,4-c]pyrazol-4-yl)-4,5,6,7-tetrahydrobenzo[d]isoxazole-3-carboxamide]
IC50 (recombinant human DHODH; [3]): < 10 nM | IC50 (MOLM-13 cells; [4]): < 10 nM

IC50 (recombinant human DHODH; [3]): 10 to 100 nM | IC50 (MOLM-13 cells; [4]): 10 to 100 nM
SMILES: O=C(N[C@@H]1COCc2c1cnn2-c1cccc(C(=O)N2CCCC2)c1Cl)c1ncn2c1CCCC2 [Ex-71, (S)—N-(1-(2-chloro-3-(pyrrolidine-1-carbonyl)phenyl)-1,4,5,7-tetrahydropyrano[3,4-c]pyrazol-4-yl)-5,6,7,8-tetrahydroimidazo[1,5-a]pyridine-1-carboxamide]

SMILES: O=C(N[C@@H]1COCc2c1cnn2-c1cccc(O)c1Cl)c1ncn2c1CCCC2 [Ex-62, (S)—N-(1-(2-chloro-3-hydroxyphenyl)-1,4,5,7-tetrahydropyrano[3,4-c]pyrazol-4-yl)-5,6,7,8-tetrahydroimidazo[1,5-a]pyridine-1-carboxamide]
IC50 (recombinant human DHODH): 10 to 100 nM | IC50 (MOLM-13 cells; MOLM-13, 72 h): 10 to 100 nM

SMILES: Cc1cccc(-n2ncc3c2COC[C@H]3NC(=O)c2ncc3n2CCCC3)c1Cl [Ex-16, (S)—N-(1-(2-chloro-3-methylphenyl)-1,4,5,7-tetrahydropyrano[3,4-c]pyrazol-4-yl)-5,6,7,8-tetrahydroimidazo[1,5-a]pyridine-3-carboxamide]
IC50 (recombinant human DHODH; [3]): < 10 nM | IC50 (MOLM-13 cells; [4]): < 10 nM
